Measured values published in ChEMBL document CHEMBL2331400, “Structure-based design and evaluation of naphthalene diimide G-quadruplex ligands as telomere targeting agents in pancreatic cancer cells” (J Med Chem, 2013).
The source made the active and inactive calls. The rule behind the calls is not given here.

How the values were obtained:
MCF7 = experiment: Cytotoxicity against human MCF7 cells assessed as growth inhibition after 96 hrs by SRB assay; format: functional, cell-based; conditions: MCF7, 96 h
unidentified = experiment: Stabilization of HSP90b promoter sequence 5'-FAM-d(GGGCGGGCCAAAGGGAAGGGG)-TAMRA-3' (unknown origin) assessed as melting temperature at 1 uM by FRET assay
MIA PaCa-2 [1] = experiment: Upregulation of MYC gene expression in human MIAPaCa2 cells at 20 to 80 nM by qPCR analysis relative to solvent-treated control; format: functional
MIA PaCa-2 [2] = experiment: Upregulation of PPARG gene expression in human MIAPaCa2 cells at 20 to 80 nM after 24 hrs by qPCR analysis relative to solvent-treated control; format: functional
[3] = Cytotoxicity against human RCC4 cells assessed as growth inhibition after 96 hrs by SRB assay; format: functional, cell-based; conditions: RCC4, 96 h
MIA PaCa-2 [4] = experiment: Induction of gamma-H2AX gene expression in human MIAPaCa2 cells by qPCR analysis; format: functional, cell-based
MIA PaCa-2 [5] = experiment: Downregulation of GADD45G gene expression in human MIAPaCa2 cells at subcytotoxic concentration after 24 hrs by qPCR analysis; format: functional, cell-based
MIA PaCa-2 [6] = experiment: Induction of ATM/[…] gene expression in human MIAPaCa2 cells by qPCR analysis; format: functional, cell-based
MIA PaCa-2 [7] = experiment: Upregulation of TP73 gene expression in human MIAPaCa2 cells at sublethal concentration after 24 hrs by qPCR analysis; format: functional, cell-based
MIA PaCa-2 [8] = experiment: Downregulation of PARP1 gene expression in human MIAPaCa2 cells at 20 to 160 nM after 24 hrs by qPCR analysis relative to solvent-treated control; format: functional, cell-based
MIA PaCa-2 [9] = experiment: Downregulation of NTHL1 gene expression in human MIAPaCa2 cells at 160 nM after 24 hrs by qPCR analysis; format: functional, cell-based
786-0 = experiment: Cytotoxicity against human 786-0 cells assessed as growth inhibition after 96 hrs by SRB assay; format: functional, cell-based; conditions: 786-0, 96 h
MIA PaCa-2 [10] = experiment: Downregulation of NBN gene expression in human MIAPaCa2 cells at 20 to 160 nM after 24 hrs by qPCR analysis relative to solvent-treated control; format: functional, cell-based
A549 = experiment: Cytotoxicity against human A549 cells assessed as growth inhibition after 96 hrs by SRB assay; format: functional, cell-based; conditions: A549, 96 h

With `CN1CCN(CCCNc2cc3c4c(c(NCCCN5CCN(C)CC5)cc5c4c2C(=O)N(CCCN2CCOCC2)C5=O)C(=O)N(CCCN2CCOCC2)C3=O)CC1` the IC50 (MCF7) was 70 nM, the ΔTm (unidentified) was 28.6 °C and the “fold change (FC)” value (MIA PaCa-2 [1]) was greater than 2. For the same compound, the “fold change (FC)” value (MIA PaCa-2 [2]) was greater than 2, the IC50 [3] was 560 nM and the Activity (MIA PaCa-2 [4]) was “Active”. The Activity (MIA PaCa-2 [5]) was “inactive”, the Activity (MIA PaCa-2 [6]) was “inactive” and the Activity (MIA PaCa-2 [7]) was “inactive”. For the same compound, the Activity (MIA PaCa-2 [8]) was “Active”, the Activity (MIA PaCa-2 [9]) was “Active” and the IC50 (786-0) was 320 nM. The Activity (MIA PaCa-2 [10]) was “Active” and the IC50 (A549) was less than 10 nM.
